Several values for one entry are separate records, joined by “and”; a condition that tells them apart may be missing. Equal entries are not always repeated.
Test system: nasal cilia
Test: nasal ciliary beat frequency (CBF), whole field analysis over time
Assay type: cell-based
Set-up: Mean CBF (WFA): unit: Hz
Experimental: The ATP concentration inside the cell is typically 1-10 millimolar (mM). We started with an ATP concentration of 1 mg/ml based on literature data and from testing done by Dr. James Palmer at University of Pennsylvania on ATP concentration for increasing nasal ciliary beat frequency. […] 1 mg/ml from the below charts=1 mg/ml=1 gram per liter=1/507 g/mol=2 mM. Most intracellular ATP concentrations in animals fall within the range of 0.5-10 mM. [table]

[1] = Plate 1, elapsed 0:00:00, treatment of plate not stated
[2] = Plate 2, elapsed 0:00:00, ATP 1 mg/ml
[3] = Plate 2, elapsed 0:00:10, ATP 1 mg/ml
[4] = Plate 2, elapsed 0:00:30, ATP 1 mg/ml
[5] = Plate 2, elapsed 0:00:40, ATP 1 mg/ml
[6] = Plate 2, elapsed 0:00:50, ATP 1 mg/ml
[7] = Plate 2, elapsed 0:01:00, ATP 1 mg/ml
[8] = Plate 2, elapsed 0:01:10, ATP 1 mg/ml
[9] = Plate 2, elapsed 0:01:20, ATP 1 mg/ml
[10] = Plate 2, elapsed 0:01:30, ATP 1 mg/ml
[11] = Plate 2, elapsed 0:01:40, ATP 1 mg/ml
[12] = Plate 2, elapsed 0:01:50, ATP 1 mg/ml
[13] = Plate 2, elapsed 0:02:00, ATP 1 mg/ml
[14] = Plate 2, elapsed 0:02:10, ATP 1 mg/ml
[15] = Plate 2, elapsed 0:02:20, ATP 1 mg/ml
[16] = Plate 2, elapsed 0:02:30, ATP 1 mg/ml
[17] = Plate 2, elapsed 0:02:40, ATP 1 mg/ml
[18] = Plate 2, elapsed 0:02:50, ATP 1 mg/ml
[19] = Plate 2, elapsed 0:03:00, ATP 1 mg/ml
[20] = Plate 2, elapsed 0:03:10, ATP 1 mg/ml
[21] = Plate 2, elapsed 0:03:20, ATP 1 mg/ml
[22] = Plate 2, elapsed 0:03:30, ATP 1 mg/ml
[23] = Plate 2, elapsed 0:03:40, ATP 1 mg/ml
[24] = Plate 2, elapsed 0:03:50, ATP 1 mg/ml
[25] = Plate 2, elapsed 0:04:00, ATP 1 mg/ml
[26] = Plate 2, elapsed 0:04:10, ATP 1 mg/ml
[27] = Plate 2, elapsed 0:04:20, ATP 1 mg/ml
[28] = Plate 2, elapsed 0:04:30, ATP 1 mg/ml
[29] = Plate 2, elapsed 0:04:40, ATP 1 mg/ml
[30] = Plate 2, elapsed 0:04:50, ATP 1 mg/ml
[31] = Plate 2, elapsed 0:05:00, ATP 1 mg/ml
[32] = Plate 2, elapsed 0:05:10, ATP 1 mg/ml
[33] = Plate 2, elapsed 0:05:20, ATP 1 mg/ml
[34] = Plate 2, elapsed 0:05:30, ATP 1 mg/ml
[35] = Plate 2, elapsed 0:05:40, ATP 1 mg/ml
[36] = Plate 2, elapsed 0:05:50, ATP 1 mg/ml
[37] = Plate 2, elapsed 0:06:00, ATP 1 mg/ml
[38] = Plate 2, elapsed 0:06:10, ATP 1 mg/ml
[39] = Plate 2, elapsed 0:06:20, ATP 1 mg/ml
[40] = Plate 2, elapsed 0:06:30, ATP 1 mg/ml
[41] = Plate 2, elapsed 0:06:40, ATP 1 mg/ml
[42] = Plate 2, elapsed 0:06:50, ATP 1 mg/ml
[43] = Plate 2, elapsed 0:07:00, ATP 1 mg/ml
[44] = Plate 2, elapsed 0:07:10, ATP 1 mg/ml
[45] = Plate 2, elapsed 0:07:20, ATP 1 mg/ml
[46] = Plate 2, elapsed 0:07:30, ATP 1 mg/ml
[47] = Plate 2, elapsed 0:07:40, ATP 1 mg/ml
[48] = Plate 2, elapsed 0:07:50, ATP 1 mg/ml
[49] = Plate 2, elapsed 0:08:00, ATP 1 mg/ml

Nc1ncnc2c1ncn2[C@@H]1O[C@H](COP(=O)(O)OP(=O)(O)OP(=O)(O)O)[C@@H](O)[C@H]1O [ATP, adenosine triphosphate]
Active Area [1]: 82.86% and 60.42% and 53.54% | Mean CBF (WFA) [1]: 6.75 and 6.14 and 5.59 | Active Area [2]: 22.19% | Mean CBF (WFA) [2]: 8.06 | Active Area [3]: 44.1% | Mean CBF (WFA) [3]: 7.41 | Active Area [4]: 49.49% | Mean CBF (WFA) [4]: 7.42 | Active Area [5]: 49.6% | Mean CBF (WFA) [5]: 7.5 | Active Area [6]: 48.61% | Mean CBF (WFA) [6]: 7.55 | Active Area [7]: 42.47% | Mean CBF (WFA) [7]: 7.66 | Active Area [8]: 43.64% | Mean CBF (WFA) [8]: 7.75 | Active Area [9]: 45.62% | Mean CBF (WFA) [9]: 7.82 | Active Area [10]: 36.91% | Mean CBF (WFA) [10]: 7.92 | Active Area [11]: 40.43% | Mean CBF (WFA) [11]: 7.99 | Active Area [12]: 43.13% | Mean CBF (WFA) [12]: 7.95 | Active Area [13]: 41.96% | Mean CBF (WFA) [13]: 8.01 | Active Area [14]: 43.36% | Mean CBF (WFA) [14]: 8 | Active Area [15]: 42.03% | Mean CBF (WFA) [15]: 8.03 | Active Area [16]: 15.64% | Mean CBF (WFA) [16]: 7.96 | Active Area [17]: 37.46% | Mean CBF (WFA) [17]: 8.02 | Active Area [18]: 40.07% | Mean CBF (WFA) [18]: 8.02 | Active Area [19]: 38.29% | Mean CBF (WFA) [19]: 8.08 | Active Area [20]: 38.85% | Mean CBF (WFA) [20]: 8.1 | Active Area [21]: 37.75% | Mean CBF (WFA) [21]: 8.09 | Active Area [22]: 36.48% | Mean CBF (WFA) [22]: 8.07 | Active Area [23]: 37.41% | Mean CBF (WFA) [23]: 8.07 | Active Area [24]: 36.73% | Mean CBF (WFA) [24]: 8.12 | Active Area [25]: 37.22% | Mean CBF (WFA) [25]: 8.11 | Active Area [26]: 38.13% | Mean CBF (WFA) [26]: 8.09 | Active Area [27]: 36.96% | Mean CBF (WFA) [27]: 8.12 | Active Area [28]: 36.02% | Mean CBF (WFA) [28]: 8.12 | Active Area [29]: 36.21% | Mean CBF (WFA) [29]: 8.06 | Active Area [30]: 34.77% | Mean CBF (WFA) [30]: 8.05 | Active Area [31]: 37.11% | Mean CBF (WFA) [31]: 8.12 | Active Area [32]: 34.86% | Mean CBF (WFA) [32]: 8.08 | Active Area [33]: 35.53% | Mean CBF (WFA) [33]: 8.09 | Active Area [34]: 36.15% | Mean CBF (WFA) [34]: 8.22 | Active Area [35]: 38.41% | Mean CBF (WFA) [35]: 8.15 | Active Area [36]: 38.05% | Mean CBF (WFA) [36]: 8.13 | Active Area [37]: 39.37% | Mean CBF (WFA) [37]: 8.17 | Active Area [38]: 39.15% | Mean CBF (WFA) [38]: 8.14 | Active Area [39]: 37.86% | Mean CBF (WFA) [39]: 8.15 | Active Area [40]: 31.72% | Mean CBF (WFA) [40]: 8.11 | Active Area [41]: 35.94% | Mean CBF (WFA) [41]: 8.21 | Active Area [42]: 36.95% | Mean CBF (WFA) [42]: 8.22 | Active Area [43]: 28.86% | Mean CBF (WFA) [43]: 8.23 | Active Area [44]: 36.92% | Mean CBF (WFA) [44]: 8.2 | Active Area [45]: 38.3% | Mean CBF (WFA) [45]: 8.24 | Active Area [46]: 37.18% | Mean CBF (WFA) [46]: 8.25 | Active Area [47]: 36.54% | Mean CBF (WFA) [47]: 8.23 | Active Area [48]: 35.67% | Mean CBF (WFA) [48]: 8.22 | Active Area [49]: 37.37% | Mean CBF (WFA) [49]: 8.17
